One may read the IC50 as the concentration that inhibits the measured activity by half.

The target of assay [1] is T1, Protein deacetylase HDAC6 (Homo sapiens, UniProt Q9UBN7).
T1 sequence (Q9UBN7 whole entry): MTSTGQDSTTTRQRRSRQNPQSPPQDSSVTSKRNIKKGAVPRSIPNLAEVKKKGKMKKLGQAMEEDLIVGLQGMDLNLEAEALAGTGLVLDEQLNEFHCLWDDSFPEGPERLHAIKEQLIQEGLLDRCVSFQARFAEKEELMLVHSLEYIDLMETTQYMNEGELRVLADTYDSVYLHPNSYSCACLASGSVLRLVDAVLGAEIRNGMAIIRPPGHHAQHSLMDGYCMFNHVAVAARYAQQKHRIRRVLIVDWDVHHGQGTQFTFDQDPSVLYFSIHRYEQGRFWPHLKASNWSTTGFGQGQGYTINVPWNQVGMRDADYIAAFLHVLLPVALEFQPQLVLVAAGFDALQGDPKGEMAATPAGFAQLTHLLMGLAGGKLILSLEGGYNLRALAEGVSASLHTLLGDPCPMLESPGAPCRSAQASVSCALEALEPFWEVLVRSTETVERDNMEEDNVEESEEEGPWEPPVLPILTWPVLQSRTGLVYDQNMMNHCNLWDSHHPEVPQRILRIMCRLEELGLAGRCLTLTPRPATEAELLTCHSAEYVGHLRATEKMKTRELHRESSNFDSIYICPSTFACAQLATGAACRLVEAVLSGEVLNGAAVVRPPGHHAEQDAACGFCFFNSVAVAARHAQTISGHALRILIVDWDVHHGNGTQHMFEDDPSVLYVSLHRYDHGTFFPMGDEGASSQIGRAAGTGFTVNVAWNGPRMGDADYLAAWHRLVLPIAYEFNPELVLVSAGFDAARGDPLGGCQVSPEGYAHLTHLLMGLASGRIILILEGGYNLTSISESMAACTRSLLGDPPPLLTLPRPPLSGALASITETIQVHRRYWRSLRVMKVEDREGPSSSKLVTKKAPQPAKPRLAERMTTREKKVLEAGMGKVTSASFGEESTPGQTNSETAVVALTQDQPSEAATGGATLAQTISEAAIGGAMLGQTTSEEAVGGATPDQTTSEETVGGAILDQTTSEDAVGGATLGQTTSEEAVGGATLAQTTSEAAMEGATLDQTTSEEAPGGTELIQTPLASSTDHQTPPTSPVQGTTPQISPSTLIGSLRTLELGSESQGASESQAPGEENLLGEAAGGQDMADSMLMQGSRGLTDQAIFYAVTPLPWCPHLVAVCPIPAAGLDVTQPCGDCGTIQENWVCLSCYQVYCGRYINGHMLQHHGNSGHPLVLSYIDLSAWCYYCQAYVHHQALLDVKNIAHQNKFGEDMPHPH
As to the kind of experiment: Inhibition of HDAC6 (unknown origin).

In the next assay the target is Histone deacetylase 3 (Homo sapiens, UniProt O15379). As to the kind of experiment: Inhibition of HDAC3 (unknown origin).
Histone deacetylase 3, sequence (O15379 whole entry): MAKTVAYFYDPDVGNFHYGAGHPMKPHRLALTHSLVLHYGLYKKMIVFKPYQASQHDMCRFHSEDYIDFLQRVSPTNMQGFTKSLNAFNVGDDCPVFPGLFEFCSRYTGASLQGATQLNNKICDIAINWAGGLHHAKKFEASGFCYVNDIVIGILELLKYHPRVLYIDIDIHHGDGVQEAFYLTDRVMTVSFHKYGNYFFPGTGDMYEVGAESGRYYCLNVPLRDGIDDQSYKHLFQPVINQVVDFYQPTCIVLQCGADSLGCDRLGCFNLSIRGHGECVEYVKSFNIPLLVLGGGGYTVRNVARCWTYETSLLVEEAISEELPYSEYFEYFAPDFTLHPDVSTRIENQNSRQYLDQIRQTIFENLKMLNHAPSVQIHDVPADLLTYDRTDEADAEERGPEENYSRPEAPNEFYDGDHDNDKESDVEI
In another assay the target is T2, Histone deacetylase 11 (Homo sapiens, UniProt Q96DB2).
T2 sequence (Q96DB2 whole entry): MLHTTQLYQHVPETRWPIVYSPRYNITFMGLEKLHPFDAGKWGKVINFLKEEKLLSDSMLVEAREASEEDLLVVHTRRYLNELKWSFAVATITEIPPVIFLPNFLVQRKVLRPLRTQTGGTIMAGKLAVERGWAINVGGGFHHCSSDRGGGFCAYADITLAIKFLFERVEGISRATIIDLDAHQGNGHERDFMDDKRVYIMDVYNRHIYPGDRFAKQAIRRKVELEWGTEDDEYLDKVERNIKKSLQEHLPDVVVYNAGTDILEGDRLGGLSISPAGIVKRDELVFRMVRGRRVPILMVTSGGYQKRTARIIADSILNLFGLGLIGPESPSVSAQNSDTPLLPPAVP
As to the kind of experiment: Inhibition of HDAC11 (unknown origin).

The target in a further assay is Histone deacetylase 4 (Homo sapiens, UniProt P56524). Kind of assay: Inhibition of HDAC4 (unknown origin).
Histone deacetylase 4, sequence (P56524 whole entry): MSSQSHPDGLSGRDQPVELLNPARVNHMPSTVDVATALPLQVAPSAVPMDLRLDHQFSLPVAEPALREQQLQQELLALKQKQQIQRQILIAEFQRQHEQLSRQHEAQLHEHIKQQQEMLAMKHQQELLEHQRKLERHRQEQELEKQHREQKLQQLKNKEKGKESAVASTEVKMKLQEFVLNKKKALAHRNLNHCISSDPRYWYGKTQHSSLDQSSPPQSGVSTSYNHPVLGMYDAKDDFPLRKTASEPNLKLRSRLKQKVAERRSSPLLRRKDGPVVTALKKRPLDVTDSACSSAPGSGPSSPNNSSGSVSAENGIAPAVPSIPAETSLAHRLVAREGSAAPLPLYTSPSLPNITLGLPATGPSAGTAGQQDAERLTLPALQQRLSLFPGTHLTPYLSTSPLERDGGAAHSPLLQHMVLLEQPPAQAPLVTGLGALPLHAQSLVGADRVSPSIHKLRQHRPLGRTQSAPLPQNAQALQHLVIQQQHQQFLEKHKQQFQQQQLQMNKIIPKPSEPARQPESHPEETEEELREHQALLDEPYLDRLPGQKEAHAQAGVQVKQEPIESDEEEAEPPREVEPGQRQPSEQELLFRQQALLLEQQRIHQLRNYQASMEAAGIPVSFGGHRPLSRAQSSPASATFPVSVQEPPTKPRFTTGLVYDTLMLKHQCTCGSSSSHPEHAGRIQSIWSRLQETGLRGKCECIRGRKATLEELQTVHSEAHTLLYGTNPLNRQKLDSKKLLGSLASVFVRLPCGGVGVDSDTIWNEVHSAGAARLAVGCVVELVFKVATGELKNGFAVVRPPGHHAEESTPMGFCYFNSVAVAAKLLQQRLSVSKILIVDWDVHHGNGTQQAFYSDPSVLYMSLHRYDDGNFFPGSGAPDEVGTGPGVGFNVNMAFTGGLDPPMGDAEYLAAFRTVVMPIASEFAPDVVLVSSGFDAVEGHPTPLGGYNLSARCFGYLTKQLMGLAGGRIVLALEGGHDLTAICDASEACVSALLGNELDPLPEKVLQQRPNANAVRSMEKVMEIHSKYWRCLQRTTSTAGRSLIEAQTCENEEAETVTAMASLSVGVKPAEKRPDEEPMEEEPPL
Another assay has as its target T3, Histone deacetylase 8 (Homo sapiens, UniProt Q9BY41).
T3 sequence (Q9BY41 whole entry): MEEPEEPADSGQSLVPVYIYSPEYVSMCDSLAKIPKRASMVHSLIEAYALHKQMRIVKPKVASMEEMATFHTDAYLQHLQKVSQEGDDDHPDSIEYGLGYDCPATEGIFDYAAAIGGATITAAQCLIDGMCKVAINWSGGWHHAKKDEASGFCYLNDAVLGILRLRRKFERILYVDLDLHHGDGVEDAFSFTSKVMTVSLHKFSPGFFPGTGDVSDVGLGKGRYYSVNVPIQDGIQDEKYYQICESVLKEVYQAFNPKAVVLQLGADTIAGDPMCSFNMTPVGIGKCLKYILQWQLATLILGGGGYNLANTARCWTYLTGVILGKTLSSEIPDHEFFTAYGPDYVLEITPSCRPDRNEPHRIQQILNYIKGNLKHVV
As to the kind of experiment: Inhibition of HDAC8 (unknown origin).

The target of assay [2] is T4, Polyamine deacetylase HDAC10 (Homo sapiens, UniProt Q969S8).
T4 sequence (Q969S8 whole entry): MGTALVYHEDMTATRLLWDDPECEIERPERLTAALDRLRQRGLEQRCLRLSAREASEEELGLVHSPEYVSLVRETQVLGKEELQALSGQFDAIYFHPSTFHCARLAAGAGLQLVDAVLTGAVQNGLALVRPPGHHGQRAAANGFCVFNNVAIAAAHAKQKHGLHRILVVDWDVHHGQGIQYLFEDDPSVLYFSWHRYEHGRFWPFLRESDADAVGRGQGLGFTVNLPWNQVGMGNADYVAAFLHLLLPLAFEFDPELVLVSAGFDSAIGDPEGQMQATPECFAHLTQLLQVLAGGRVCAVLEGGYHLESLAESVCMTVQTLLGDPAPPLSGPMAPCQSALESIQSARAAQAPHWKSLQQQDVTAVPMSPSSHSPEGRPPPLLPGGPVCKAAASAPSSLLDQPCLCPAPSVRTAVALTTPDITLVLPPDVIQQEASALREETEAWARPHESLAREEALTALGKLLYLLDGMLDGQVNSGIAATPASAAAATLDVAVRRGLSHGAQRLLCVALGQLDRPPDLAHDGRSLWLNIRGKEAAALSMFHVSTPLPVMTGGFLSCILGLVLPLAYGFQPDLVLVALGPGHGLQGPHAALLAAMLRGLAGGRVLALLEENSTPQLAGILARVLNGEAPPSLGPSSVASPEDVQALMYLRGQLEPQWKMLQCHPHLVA
As to the kind of experiment: Inhibition of HDAC10 (unknown origin).

The next assay addresses Histone deacetylase 9 (Homo sapiens, UniProt Q9UKV0). Kind of assay: Inhibition of HDAC9 (unknown origin).
In a further assay the target is Histone deacetylase 2 (Homo sapiens, UniProt Q92769). Kind of assay: Inhibition of HDAC2 (unknown origin).
Histone deacetylase 2, sequence (Q92769 whole entry): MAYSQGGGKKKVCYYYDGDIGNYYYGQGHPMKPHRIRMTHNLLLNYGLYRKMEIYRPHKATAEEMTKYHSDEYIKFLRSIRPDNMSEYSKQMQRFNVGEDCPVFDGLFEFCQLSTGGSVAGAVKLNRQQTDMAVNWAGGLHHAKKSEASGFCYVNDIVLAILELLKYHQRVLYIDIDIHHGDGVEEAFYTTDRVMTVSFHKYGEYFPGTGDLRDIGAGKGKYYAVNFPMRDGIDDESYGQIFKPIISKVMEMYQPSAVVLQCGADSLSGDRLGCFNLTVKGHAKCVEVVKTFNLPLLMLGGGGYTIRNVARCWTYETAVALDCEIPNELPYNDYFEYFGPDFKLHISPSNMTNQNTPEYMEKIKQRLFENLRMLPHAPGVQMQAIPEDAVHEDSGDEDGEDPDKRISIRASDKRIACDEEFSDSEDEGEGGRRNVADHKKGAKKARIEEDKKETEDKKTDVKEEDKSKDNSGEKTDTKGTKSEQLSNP
Another assay deals with Histone deacetylase 1 (Homo sapiens, UniProt Q13547). Kind of assay: Inhibition of HDAC1 (unknown origin).
Histone deacetylase 1, sequence (Q13547 whole entry): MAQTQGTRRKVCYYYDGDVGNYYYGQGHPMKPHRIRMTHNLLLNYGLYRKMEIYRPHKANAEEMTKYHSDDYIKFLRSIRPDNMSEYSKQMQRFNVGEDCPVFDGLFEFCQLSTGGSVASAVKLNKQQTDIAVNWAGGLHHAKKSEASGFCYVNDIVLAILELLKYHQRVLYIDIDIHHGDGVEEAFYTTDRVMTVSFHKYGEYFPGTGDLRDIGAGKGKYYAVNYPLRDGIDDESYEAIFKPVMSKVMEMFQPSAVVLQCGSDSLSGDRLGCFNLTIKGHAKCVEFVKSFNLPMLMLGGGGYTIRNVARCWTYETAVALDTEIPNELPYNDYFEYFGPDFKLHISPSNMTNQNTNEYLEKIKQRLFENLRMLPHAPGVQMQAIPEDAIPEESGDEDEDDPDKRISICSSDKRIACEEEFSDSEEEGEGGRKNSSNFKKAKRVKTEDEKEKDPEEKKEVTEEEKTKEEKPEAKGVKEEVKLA
The next assay deals with Histone deacetylase 5 (Homo sapiens, UniProt Q9UQL6). Kind of assay: Inhibition of HDAC5 (unknown origin).
Histone deacetylase 5, sequence (Q9UQL6 whole entry): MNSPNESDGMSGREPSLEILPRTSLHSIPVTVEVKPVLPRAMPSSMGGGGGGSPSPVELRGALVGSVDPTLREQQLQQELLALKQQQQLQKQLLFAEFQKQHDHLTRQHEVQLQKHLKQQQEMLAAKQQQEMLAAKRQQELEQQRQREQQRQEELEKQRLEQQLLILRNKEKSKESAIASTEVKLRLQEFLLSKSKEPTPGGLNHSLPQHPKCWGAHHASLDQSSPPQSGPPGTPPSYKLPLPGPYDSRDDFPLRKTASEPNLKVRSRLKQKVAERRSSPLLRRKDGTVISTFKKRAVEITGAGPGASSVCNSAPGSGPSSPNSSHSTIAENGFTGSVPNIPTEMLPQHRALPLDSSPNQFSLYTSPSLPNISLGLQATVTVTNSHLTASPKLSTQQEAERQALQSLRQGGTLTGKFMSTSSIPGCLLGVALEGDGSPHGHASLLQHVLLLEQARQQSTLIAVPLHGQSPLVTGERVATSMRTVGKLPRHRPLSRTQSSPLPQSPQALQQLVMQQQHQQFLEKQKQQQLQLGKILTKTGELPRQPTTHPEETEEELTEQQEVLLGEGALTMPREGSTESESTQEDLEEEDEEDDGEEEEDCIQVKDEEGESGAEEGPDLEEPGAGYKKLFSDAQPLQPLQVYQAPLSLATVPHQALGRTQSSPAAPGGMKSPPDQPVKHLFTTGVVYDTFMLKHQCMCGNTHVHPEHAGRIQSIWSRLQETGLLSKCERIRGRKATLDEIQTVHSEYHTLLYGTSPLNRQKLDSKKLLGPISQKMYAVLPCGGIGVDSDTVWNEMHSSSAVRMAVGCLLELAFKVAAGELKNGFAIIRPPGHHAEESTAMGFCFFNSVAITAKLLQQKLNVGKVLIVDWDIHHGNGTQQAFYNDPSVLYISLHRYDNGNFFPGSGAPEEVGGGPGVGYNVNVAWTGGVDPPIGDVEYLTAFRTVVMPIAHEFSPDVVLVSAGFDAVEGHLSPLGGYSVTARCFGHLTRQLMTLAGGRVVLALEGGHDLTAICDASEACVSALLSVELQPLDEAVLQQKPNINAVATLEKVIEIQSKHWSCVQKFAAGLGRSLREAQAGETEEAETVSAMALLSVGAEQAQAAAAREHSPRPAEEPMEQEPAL

Molecules are shown by their SMILES. Some results are limits rather than exact numbers.

Histone deacetylase 9, sequence (Q9UKV0 whole entry): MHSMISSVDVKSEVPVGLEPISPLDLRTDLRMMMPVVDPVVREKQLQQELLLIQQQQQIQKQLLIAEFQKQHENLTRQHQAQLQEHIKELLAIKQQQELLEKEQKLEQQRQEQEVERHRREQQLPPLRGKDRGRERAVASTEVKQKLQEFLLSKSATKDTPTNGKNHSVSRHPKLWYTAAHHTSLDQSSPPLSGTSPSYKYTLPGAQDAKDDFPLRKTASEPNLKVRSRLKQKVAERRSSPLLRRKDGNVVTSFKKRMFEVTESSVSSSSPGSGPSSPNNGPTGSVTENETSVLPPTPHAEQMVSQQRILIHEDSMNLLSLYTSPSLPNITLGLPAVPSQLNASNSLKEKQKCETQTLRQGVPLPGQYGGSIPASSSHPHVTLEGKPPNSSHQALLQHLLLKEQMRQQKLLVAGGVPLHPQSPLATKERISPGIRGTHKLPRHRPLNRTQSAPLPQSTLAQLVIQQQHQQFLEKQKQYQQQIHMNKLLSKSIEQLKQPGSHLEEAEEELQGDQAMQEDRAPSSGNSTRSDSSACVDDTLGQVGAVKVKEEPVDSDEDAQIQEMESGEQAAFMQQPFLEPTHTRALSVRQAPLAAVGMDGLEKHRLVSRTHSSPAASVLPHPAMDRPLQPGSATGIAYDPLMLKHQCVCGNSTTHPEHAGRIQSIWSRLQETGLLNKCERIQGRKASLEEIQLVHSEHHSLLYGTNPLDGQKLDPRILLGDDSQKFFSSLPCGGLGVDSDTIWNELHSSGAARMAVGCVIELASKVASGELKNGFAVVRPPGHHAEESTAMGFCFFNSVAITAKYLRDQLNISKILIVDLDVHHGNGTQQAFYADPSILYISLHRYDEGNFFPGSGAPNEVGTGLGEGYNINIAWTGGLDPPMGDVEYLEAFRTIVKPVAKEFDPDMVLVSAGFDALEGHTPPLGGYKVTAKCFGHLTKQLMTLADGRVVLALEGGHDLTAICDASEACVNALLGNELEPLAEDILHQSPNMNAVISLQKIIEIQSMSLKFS

Consider `O=C(NO)c1ccc(CN2c3ccccc3[S+]([O-])C[C@H]3CCCC[C@H]32)cc1` (stereo not given in full), for which the concentration for half-maximal inhibition (IC50) in [1] is 0.1 µM; against Histone deacetylase 3, 26 µM; against Histone deacetylase 11, 0.54 µM; against Histone deacetylase 4 it was more than 30 µM; on Histone deacetylase 8, 2.9 µM; in assay [2] it was 14 µM. The IC50 at Histone deacetylase 9 came out at 8.9 µM; against Histone deacetylase 2, 26 µM; at Histone deacetylase 1, 4.9 µM; at Histone deacetylase 5 it was 12 µM.

Source of the values: ChEMBL document CHEMBL6078616, “Seven-membered N-heterocycles as approved drugs and promising leads in medicinal chemistry as well as the metal-free domino access to their scaffolds” (Eur J Med Chem, 2024).
